{
  "source": "ChEMBL document CHEMBL5505992",
  "about": "“Novel membrane-targeting isoxanthohumol-amine conjugates for combating methicillin-resistant Staphylococcus aureus (MRSA) infections” (Eur J Med Chem, 2024)",
  "key": {"Staphylococcus aureus [1]": {"system": "Staphylococcus aureus", "assay": "Antibacterial activity against Staphylococcus aureus ATCC 29213 measured after 16 to 18 hrs by CLSI method", "format": "functional", "conditions": "time 16-18 hrs"}, "Staphylococcus aureus [2]": {"system": "Staphylococcus aureus", "assay": "Antibacterial activity against methicillin-resistant Staphylococcus aureus clinical isolate MRSA-11 measured after 16 to 18 hrs by CLSI method", "format": "functional", "conditions": "time 16-18 hrs"}, "Staphylococcus aureus [3]": {"system": "Staphylococcus aureus", "assay": "Antibacterial activity against methicillin-resistant Staphylococcus aureus clinical isolate MRSA-13 measured after 16 to 18 hrs by CLSI method", "format": "functional", "conditions": "time 16-18 hrs"}, "Staphylococcus aureus [4]": {"system": "Staphylococcus aureus", "assay": "Antibacterial activity against methicillin-resistant Staphylococcus aureus clinical isolate MRSA-14 measured after 16 to 18 hrs by CLSI method", "format": "functional", "conditions": "time 16-18 hrs"}, "Staphylococcus aureus [5]": {"system": "Staphylococcus aureus", "assay": "Antibacterial activity against methicillin-resistant Staphylococcus aureus clinical isolate MRSA-16 measured after 16 to 18 hrs by CLSI method", "format": "functional", "conditions": "time 16-18 hrs"}, "Staphylococcus aureus [6]": {"system": "Staphylococcus aureus", "assay": "Antibacterial activity against methicillin-resistant Staphylococcus aureus clinical isolate MRSA-17 measured after 16 to 18 hrs by CLSI method", "format": "functional", "conditions": "time 16-18 hrs"}, "Staphylococcus aureus [7]": {"system": "Staphylococcus aureus", "assay": "Antibacterial activity against methicillin-resistant Staphylococcus aureus clinical isolate MRSA-18 measured after 16 to 18 hrs by CLSI method", "format": "functional", "conditions": "time 16-18 hrs"}, "Staphylococcus aureus [8]": {"system": "Staphylococcus aureus", "assay": "Antibacterial activity against methicillin-resistant Staphylococcus aureus clinical isolate MRSA-20 measured after 16 to 18 hrs by CLSI method", "format": "functional", "conditions": "time 16-18 hrs"}, "Staphylococcus aureus [9]": {"system": "Staphylococcus aureus", "assay": "Antibacterial activity against methicillin-resistant Staphylococcus aureus clinical isolate MRSA-21 measured after 16 to 18 hrs by CLSI method", "format": "functional", "conditions": "time 16-18 hrs"}, "Staphylococcus aureus [10]": {"system": "Staphylococcus aureus", "assay": "Antibacterial activity against methicillin-resistant Staphylococcus aureus clinical isolate MRSA-22 measured after 16 to 18 hrs by CLSI method", "format": "functional", "conditions": "time 16-18 hrs"}, "Staphylococcus aureus [11]": {"system": "Staphylococcus aureus", "assay": "Antibacterial activity against methicillin-resistant Staphylococcus aureus clinical isolate MRSA-23 measured after 16 to 18 hrs by CLSI method", "format": "functional", "conditions": "time 16-18 hrs"}, "Escherichia coli": {"system": "Escherichia coli", "assay": "Antibacterial activity against Escherichia coli ATCC25922 measured after 16 to 18 hrs by CLSI method", "format": "functional", "conditions": "time 16-18 hrs"}, "[12]": {"assay": "Hemolytic activity in sheep erythrocytes incubated for 1 hr by absorbance based analysis", "format": "toxicity, cell-based, Ovis aries, Erythrocyte"}, "[13]": {"assay": "Selectivity index, ratio of HC50 for hemolytic activity in sheep erythrocytes to MIC for antibacterial activity against Staphylococcus aureus ATCC 29213", "format": "toxicity, cell-based", "conditions": "read-out: Selectivity Index"}},
  "data": [
    {"smiles": "COc1cc(OCCCN2CCSCC2)c(CC=C(C)C)c2c1C(=O)CC(c1ccc(OCCCN3CCSCC3)cc1)O2", "note": "(centres undefined)", "values": [
      {"measurement": "MIC", "setting": "Staphylococcus aureus [1]", "result": "> 128", "unit": "µg/mL"},
      {"measurement": "MIC", "setting": "Staphylococcus aureus [2]", "result": "> 128", "unit": "µg/mL"},
      {"measurement": "MIC", "setting": "Staphylococcus aureus [3]", "result": "> 128", "unit": "µg/mL"},
      {"measurement": "MIC", "setting": "Staphylococcus aureus [4]", "result": "> 128", "unit": "µg/mL"},
      {"measurement": "MIC", "setting": "Staphylococcus aureus [5]", "result": "> 128", "unit": "µg/mL"},
      {"measurement": "MIC", "setting": "Staphylococcus aureus [6]", "result": "> 128", "unit": "µg/mL"},
      {"measurement": "MIC", "setting": "Staphylococcus aureus [7]", "result": "> 128", "unit": "µg/mL"},
      {"measurement": "MIC", "setting": "Staphylococcus aureus [8]", "result": "> 128", "unit": "µg/mL"},
      {"measurement": "MIC", "setting": "Staphylococcus aureus [9]", "result": "> 128", "unit": "µg/mL"},
      {"measurement": "MIC", "setting": "Staphylococcus aureus [10]", "result": "> 128", "unit": "µg/mL"},
      {"measurement": "MIC", "setting": "Staphylococcus aureus [11]", "result": "> 128", "unit": "µg/mL"},
      {"measurement": "MIC", "setting": "Escherichia coli", "result": "> 128", "unit": "µg/mL"},
      {"measurement": "HC50 at 1 h", "setting": "[12]", "result": "> 640", "unit": "µg/mL"}
    ]},
    {"smiles": "CCCN(CCC)CCCCCOc1ccc(C2CC(=O)c3c(OC)cc(OCCCCCN(CCC)CCC)c(CC=C(C)C)c3O2)cc1", "note": "(centres undefined)", "values": [
      {"measurement": "MIC", "setting": "Staphylococcus aureus [1]", "result": 8, "unit": "µg/mL"},
      {"measurement": "MIC", "setting": "Staphylococcus aureus [2]", "result": 8, "unit": "µg/mL"},
      {"measurement": "MIC", "setting": "Staphylococcus aureus [3]", "result": 8, "unit": "µg/mL"},
      {"measurement": "MIC", "setting": "Staphylococcus aureus [4]", "result": 8, "unit": "µg/mL"},
      {"measurement": "MIC", "setting": "Staphylococcus aureus [5]", "result": 8, "unit": "µg/mL"},
      {"measurement": "MIC", "setting": "Staphylococcus aureus [6]", "result": 8, "unit": "µg/mL"},
      {"measurement": "MIC", "setting": "Staphylococcus aureus [7]", "result": 16, "unit": "µg/mL"},
      {"measurement": "MIC", "setting": "Staphylococcus aureus [8]", "result": 8, "unit": "µg/mL"},
      {"measurement": "MIC", "setting": "Staphylococcus aureus [9]", "result": 8, "unit": "µg/mL"},
      {"measurement": "MIC", "setting": "Staphylococcus aureus [10]", "result": 8, "unit": "µg/mL"},
      {"measurement": "MIC", "setting": "Staphylococcus aureus [11]", "result": 16, "unit": "µg/mL"},
      {"measurement": "MIC", "setting": "Escherichia coli", "result": "> 128", "unit": "µg/mL"},
      {"measurement": "HC50 at 1 h", "setting": "[12]", "result": 331, "unit": "µg/mL"},
      {"measurement": "selectivity ratio", "setting": "[13]", "result": 41.4}
    ]},
    {"smiles": "COc1cc(OCCCN2CCCCC2)c(CC=C(C)C)c2c1C(=O)CC(c1ccc(OCCCN3CCCCC3)cc1)O2", "note": "(centres undefined)", "values": [
      {"measurement": "MIC", "setting": "Staphylococcus aureus [1]", "result": 64, "unit": "µg/mL"},
      {"measurement": "MIC", "setting": "Staphylococcus aureus [2]", "result": "> 128", "unit": "µg/mL"},
      {"measurement": "MIC", "setting": "Staphylococcus aureus [3]", "result": "> 128", "unit": "µg/mL"},
      {"measurement": "MIC", "setting": "Staphylococcus aureus [4]", "result": "> 128", "unit": "µg/mL"},
      {"measurement": "MIC", "setting": "Staphylococcus aureus [5]", "result": 32, "unit": "µg/mL"},
      {"measurement": "MIC", "setting": "Staphylococcus aureus [6]", "result": "> 128", "unit": "µg/mL"},
      {"measurement": "MIC", "setting": "Staphylococcus aureus [7]", "result": "> 128", "unit": "µg/mL"},
      {"measurement": "MIC", "setting": "Staphylococcus aureus [8]", "result": "> 128", "unit": "µg/mL"},
      {"measurement": "MIC", "setting": "Staphylococcus aureus [9]", "result": "> 128", "unit": "µg/mL"},
      {"measurement": "MIC", "setting": "Staphylococcus aureus [10]", "result": "> 128", "unit": "µg/mL"},
      {"measurement": "MIC", "setting": "Staphylococcus aureus [11]", "result": "> 128", "unit": "µg/mL"},
      {"measurement": "MIC", "setting": "Escherichia coli", "result": "> 128", "unit": "µg/mL"},
      {"measurement": "HC50 at 1 h", "setting": "[12]", "result": 467, "unit": "µg/mL"},
      {"measurement": "selectivity ratio", "setting": "[13]", "result": 7.3}
    ]},
    {"smiles": "COc1cc(OCCCCCN2CCC(C)CC2)c(CC=C(C)C)c2c1C(=O)CC(c1ccc(OCCCCCN3CCC(C)CC3)cc1)O2", "note": "(centres undefined)", "values": [
      {"measurement": "MIC", "setting": "Staphylococcus aureus [1]", "result": 8, "unit": "µg/mL"},
      {"measurement": "MIC", "setting": "Staphylococcus aureus [2]", "result": 4, "unit": "µg/mL"},
      {"measurement": "MIC", "setting": "Staphylococcus aureus [3]", "result": 8, "unit": "µg/mL"},
      {"measurement": "MIC", "setting": "Staphylococcus aureus [4]", "result": 8, "unit": "µg/mL"},
      {"measurement": "MIC", "setting": "Staphylococcus aureus [5]", "result": 4, "unit": "µg/mL"},
      {"measurement": "MIC", "setting": "Staphylococcus aureus [6]", "result": 8, "unit": "µg/mL"},
      {"measurement": "MIC", "setting": "Staphylococcus aureus [7]", "result": 8, "unit": "µg/mL"},
      {"measurement": "MIC", "setting": "Staphylococcus aureus [8]", "result": 8, "unit": "µg/mL"},
      {"measurement": "MIC", "setting": "Staphylococcus aureus [9]", "result": 4, "unit": "µg/mL"},
      {"measurement": "MIC", "setting": "Staphylococcus aureus [10]", "result": 8, "unit": "µg/mL"},
      {"measurement": "MIC", "setting": "Staphylococcus aureus [11]", "result": 8, "unit": "µg/mL"},
      {"measurement": "MIC", "setting": "Escherichia coli", "result": "> 128", "unit": "µg/mL"},
      {"measurement": "HC50 at 1 h", "setting": "[12]", "result": "> 1280", "unit": "µg/mL"},
      {"measurement": "selectivity ratio", "setting": "[13]", "result": "> 160"}
    ]},
    {"smiles": "COc1cc(OCCCN2CCC(C)CC2)c(CC=C(C)C)c2c1C(=O)CC(c1ccc(OCCCN3CCC(C)CC3)cc1)O2", "note": "(centres undefined)", "values": [
      {"measurement": "MIC", "setting": "Staphylococcus aureus [1]", "result": 16, "unit": "µg/mL"},
      {"measurement": "MIC", "setting": "Staphylococcus aureus [2]", "result": 16, "unit": "µg/mL"},
      {"measurement": "MIC", "setting": "Staphylococcus aureus [3]", "result": 16, "unit": "µg/mL"},
      {"measurement": "MIC", "setting": "Staphylococcus aureus [4]", "result": 16, "unit": "µg/mL"},
      {"measurement": "MIC", "setting": "Staphylococcus aureus [5]", "result": 16, "unit": "µg/mL"},
      {"measurement": "MIC", "setting": "Staphylococcus aureus [6]", "result": 16, "unit": "µg/mL"},
      {"measurement": "MIC", "setting": "Staphylococcus aureus [7]", "result": 16, "unit": "µg/mL"},
      {"measurement": "MIC", "setting": "Staphylococcus aureus [8]", "result": 16, "unit": "µg/mL"},
      {"measurement": "MIC", "setting": "Staphylococcus aureus [9]", "result": 16, "unit": "µg/mL"},
      {"measurement": "MIC", "setting": "Staphylococcus aureus [10]", "result": 16, "unit": "µg/mL"},
      {"measurement": "MIC", "setting": "Staphylococcus aureus [11]", "result": 32, "unit": "µg/mL"},
      {"measurement": "MIC", "setting": "Escherichia coli", "result": "> 128", "unit": "µg/mL"},
      {"measurement": "HC50 at 1 h", "setting": "[12]", "result": "> 1280", "unit": "µg/mL"},
      {"measurement": "selectivity ratio", "setting": "[13]", "result": "> 80"}
    ]}
  ]
}
